pKi: −log10 of the molar value.
Target: R232-STING (Homo sapiens, UniProt Q86WV6, H232R)
Experiment: biochemical

Chain of R232-STING (Q86WV6 155-341 H232R): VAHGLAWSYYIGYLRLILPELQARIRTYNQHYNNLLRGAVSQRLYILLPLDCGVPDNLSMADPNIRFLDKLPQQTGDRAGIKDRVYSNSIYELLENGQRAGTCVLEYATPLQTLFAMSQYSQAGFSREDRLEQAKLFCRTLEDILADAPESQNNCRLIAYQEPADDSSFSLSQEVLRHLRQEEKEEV

SMILES	pKi
CCc1nc(C)[nH]c1-c1n[nH]c(-c2cc(C(N)=O)cc3c2cnn3C)n1 [ZZZ055, 4-[3-(4-ethyl-2-methyl-1H-imidazol-5-yl)-1H-1,2,4-triazol-5-yl]-1-methyl-1H-indazole-6-carboxamide]	< 6.00
CCn1nc(C)cc1-c1nnc(-c2cc(C(N)=O)cc3c2nnn3C)[nH]1 [ZZZ002, 4-[5-(1-ethyl-3-methyl-1H-pyrazol-5-yl)-4H-1,2,4-triazol-3-yl]-1-methyl-1H-benzotriazole-6-carboxamide]	< 6.00
CCn1nc(C)c(C(F)(F)F)c1-c1nnc(-c2cc(C(N)=O)cc3c2cnn3C)[nH]1 [ZZZ048, 4-{5-[1-ethyl-3-methyl-4-(trifluoromethyl)-1H-pyrazol-5-yl]-4H-1,2,4-triazol-3-yl}-1-methyl-1H-indazole-6-carboxamide]	6.04
CCn1nc(C)cc1-c1nnc(-c2cc(C(N)=O)cc3c2cnn3C(C)CN2CCCC2)[nH]1 (centres unmarked) [ZZZ040, 4-[5-(1-ethyl-3-methyl-1H-pyrazol-5-yl)-4H-1,2,4-triazol-3-yl]-1-[1-(pyrrolidin-1-yl)propan-2-yl]-1H-indazole-6-carboxamide]	< 6.00
CCn1nc(C)cc1-c1nnc(-c2cc(C(N)=O)cc3c2cnn3[C@H]2C[C@H](NC)C2)[nH]1 [ZZZ066, 4-[5-(1-ethyl-3-methyl-1H-pyrazol-5-yl)-4H-1,2,4-triazol-3-yl]-1-[(1r,3r)-3-(methylamino)cyclobutyl]-1H-indazole-6-carboxamide]	< 6.00
CCn1nc(C)cc1-c1ncc(-c2cc(C(N)=O)cc3c2cnn3C)[nH]1 [ZZZ009, 4-[2-(1-ethyl-3-methyl-1H-pyrazol-5-yl)-1H-imidazol-5-yl]-1-methyl-1H-indazole-6-carboxamide]	6.02
CCn1nc(C)c(F)c1-c1nc(CN)c(-c2nc(C(N)=O)cc3c2cnn3C)o1 [ZZZ045, 4-[4-(aminomethyl)-2-(1-ethyl-4-fluoro-3-methyl-1H-pyrazol-5-yl)-1,3-oxazol-5-yl]-1-methyl-1H-pyrazolo[4,3-c]pyridine-6-carboxamide]	< 6.05
CCn1nc(C)cc1-c1nnc(-c2cc(C(N)=O)cc3c2cnn3CCCC2CCNCC2)[nH]1 [ZZZ077, 4-[5-(1-ethyl-3-methyl-1H-pyrazol-5-yl)-4H-1,2,4-triazol-3-yl]-1-[3-(piperidin-4-yl)propyl]-1H-indazole-6-carboxamide]	< 6.00
CCn1nc(C)cc1-c1nnc(-c2cc(C(N)=O)cc3c2cnn3[C@H](C)C2CCN(C)CC2)[nH]1 (racemic) [ZZZ041, 4-[5-(1-ethyl-3-methyl-1H-pyrazol-5-yl)-4H-1,2,4-triazol-3-yl]-1-[(1R)-1-(1-methylpiperidin-4-yl)ethyl]-1H-indazole-6-carboxamide]	< 6.00
CCc1nc(C)n(C)c1-c1n[nH]c(-c2cc(C(N)=O)cc3c2cnn3C)n1 [ZZZ056, 4-[3-(4-ethyl-1,2-dimethyl-1H-imidazol-5-yl)-1H-1,2,4-triazol-5-yl]-1-methyl-1H-indazole-6-carboxamide]	< 6.00
CCN(CCO)CCn1ncc2c(-c3nc(-c4cc(C)nn4CC)n[nH]3)cc(C(N)=O)cc21 [ZZZ112, 1-{2-[ethyl(2-hydroxyethyl)amino]ethyl}-4-[3-(1-ethyl-3-methyl-1H-pyrazol-5-yl)-1H-1,2,4-triazol-5-yl]-1H-indazole-6-carboxamide]	< 6.00
CCn1nc(C)cc1-c1nnc(-c2cc(C(N)=O)cc3c2cnn3C[C@@H](C)C2CCNCC2)[nH]1 [ZZZ076, 4-[5-(1-ethyl-3-methyl-1H-pyrazol-5-yl)-4H-1,2,4-triazol-3-yl]-1-[(2S)-2-(piperidin-4-yl)propyl]-1H-indazole-6-carboxamide]	6.01
CCn1nc(C)c(F)c1-c1n[nH]c(-c2cc(C(N)=O)cc3c2cnn3CCCNC)n1 [ZZZ054, 4-[3-(1-ethyl-4-fluoro-3-methyl-1H-pyrazol-5-yl)-1H-1,2,4-triazol-5-yl]-1-[3-(methylamino)propyl]-1H-indazole-6-carboxamide]	< 5.72
CCn1nc(C(=O)O)cc1-c1cnc(-c2cc(C(N)=O)cc3c2cnn3C)[nH]1 [ZZZ124, 5-[2-(6-carbamoyl-1-methyl-1H-indazol-4-yl)-1H-imidazol-5-yl]-1-ethyl-1H-pyrazole-3-carboxylic acid]	< 7.05
CCn1nc(C)cc1-c1nnc(-c2cc(C(N)=O)cc3c2cnn3[C@@H](C)CN2CCCC2)[nH]1 [ZZZ024, 4-[5-(1-ethyl-3-methyl-1H-pyrazol-5-yl)-4H-1,2,4-triazol-3-yl]-1-[(2S)-1-(pyrrolidin-1-yl)propan-2-yl]-1H-indazole-6-carboxamide]	< 6.00
CCn1nc(C)cc1-c1nnc(-c2cc(C(N)=O)cc3c2cnn3CC(C)(C)CN(C)C)[nH]1 [ZZZ013, 1-[3-(dimethylamino)-2,2-dimethylpropyl]-4-[5-(1-ethyl-3-methyl-1H-pyrazol-5-yl)-4H-1,2,4-triazol-3-yl]-1H-indazole-6-carboxamide]	< 6.00
CCn1nc(C)cc1-c1nnc(-c2cc(C(N)=O)cc3c2cnn3CC[C@@H]2CCCN(C)C2)[nH]1 (racemic) [ZZZ042, 4-[5-(1-ethyl-3-methyl-1H-pyrazol-5-yl)-4H-1,2,4-triazol-3-yl]-1-{2-[(3S)-1-methylpiperidin-3-yl]ethyl}-1H-indazole-6-carboxamide]	< 6.00
CCn1nc(CO)cc1-c1nnc(-c2cc(C(N)=O)cc3c2cnn3C)[nH]1 [ZZZ050, 4-{5-[1-ethyl-3-(hydroxymethyl)-1H-pyrazol-5-yl]-4H-1,2,4-triazol-3-yl}-1-methyl-1H-indazole-6-carboxamide]	< 6.00
CCn1nc(C(=O)O)cc1-c1nc(-c2nc(C(N)=O)cc3c2cnn3C)n(C)n1 [ZZZ083, 5-[5-(6-carbamoyl-1-methyl-1H-pyrazolo[4,3-c]pyridin-4-yl)-1-methyl-1H-1,2,4-triazol-3-yl]-1-ethyl-1H-pyrazole-3-carboxylic acid]	< 6.57
CCn1nc(C)cc1-c1nnc(-c2cc(C(N)=O)cc3c2cnn3[C@H]2CC[C@@H](NC)CC2)[nH]1 [ZZZ075, 4-[5-(1-ethyl-3-methyl-1H-pyrazol-5-yl)-4H-1,2,4-triazol-3-yl]-1-[(1s,4s)-4-(methylamino)cyclohexyl]-1H-indazole-6-carboxamide]	6.02

Next, values leading:

pKi	SMILES
6.09	CCN(CCC#N)CCn1ncc2c(-c3nc(-c4cc(C)nn4CC)n[nH]3)cc(C(N)=O)cc21 [ZZZ104, 1-{2-[(2-cyanoethyl)(ethyl)amino]ethyl}-4-[3-(1-ethyl-3-methyl-1H-pyrazol-5-yl)-1H-1,2,4-triazol-5-yl]-1H-indazole-6-carboxamide]
6.29	CCn1nc(C)cc1-c1nc(-c2nc(C(N)=O)cc3c2cnn3C)n(CCN(C)C)n1 [ZZZ125, 4-{1-[2-(dimethylamino)ethyl]-3-(1-ethyl-3-methyl-1H-pyrazol-5-yl)-1H-1,2,4-triazol-5-yl}-1-methyl-1H-pyrazolo[4,3-c]pyridine-6-carboxamide]
6.08	CCn1nc(C)cc1-c1n[nH]c(-c2cc(C(N)=O)cc3c2cnn3CCN2C[C@H](O)[C@H]2C)n1 [ZZZ091, 4-[3-(1-ethyl-3-methyl-1H-pyrazol-5-yl)-1H-1,2,4-triazol-5-yl]-1-{2-[(2R,3S)-3-hydroxy-2-methylazetidin-1-yl]ethyl}-1H-indazole-6-carboxamide]
6.19	CCn1nc(C)cc1-c1nnc(-c2cc(C(N)=O)cc3c2cnn3CCC2CCNCC2)[nH]1 [ZZZ073, 4-[5-(1-ethyl-3-methyl-1H-pyrazol-5-yl)-4H-1,2,4-triazol-3-yl]-1-[2-(piperidin-4-yl)ethyl]-1H-indazole-6-carboxamide]
6.14	CCn1nc(C)cc1-c1nnc(-c2cc(C(N)=O)cc3c2cnn3CC23CCCN2CCC3)[nH]1 [ZZZ019, 4-[5-(1-ethyl-3-methyl-1H-pyrazol-5-yl)-4H-1,2,4-triazol-3-yl]-1-[(tetrahydro-1H-pyrrolizin-7a(5H)-yl)methyl]-1H-indazole-6-carboxamide]
6.11	CCn1nc(C)cc1-c1n[nH]c(-c2cc(C(N)=O)cc3c2cnn3CCN2CCC3CC3C2)n1 (centres unmarked) [ZZZ095, 1-[2-(3-azabicyclo[4.1.0]heptan-3-yl)ethyl]-4-[3-(1-ethyl-3-methyl-1H-pyrazol-5-yl)-1H-1,2,4-triazol-5-yl]-1H-indazole-6-carboxamide]
6.04	CCn1nc(C)cc1-c1n[nH]c(-c2cc(C(N)=O)cc3c2cnn3CCN2CCOC[C@H]2CO)n1 [ZZZ120, 4-[3-(1-ethyl-3-methyl-1H-pyrazol-5-yl)-1H-1,2,4-triazol-5-yl]-1-{2-[(3R)-3-(hydroxymethyl)morpholin-4-yl]ethyl}-1H-indazole-6-carboxamide]
6.35	CCn1nc(C)cc1-c1nnc(-c2cc(C(N)=O)cc3c2cnn3[C@H](C)CCN2CCOCC2)[nH]1 (racemic) [ZZZ022, 4-[5-(1-ethyl-3-methyl-1H-pyrazol-5-yl)-4H-1,2,4-triazol-3-yl]-1-[(2R)-4-(morpholin-4-yl)butan-2-yl]-1H-indazole-6-carboxamide]
6.06	CCn1nc(C)cc1-c1nnc(-c2cc(C(N)=O)cc3c2cnn3CCN(C)CCOC)[nH]1 [ZZZ030, 4-[5-(1-ethyl-3-methyl-1H-pyrazol-5-yl)-4H-1,2,4-triazol-3-yl]-1-{2-[(2-methoxyethyl)(methyl)amino]ethyl}-1H-indazole-6-carboxamide]
6.06	CCn1nc(C)cc1-c1n[nH]c(-c2cc(C(N)=O)cc3c2cnn3CCN(C)CC(N)=O)n1 [ZZZ105, 1-{2-[(2-amino-2-oxoethyl)(methyl)amino]ethyl}-4-[3-(1-ethyl-3-methyl-1H-pyrazol-5-yl)-1H-1,2,4-triazol-5-yl]-1H-indazole-6-carboxamide]
6.07	CCn1nc(C)cc1-c1n[nH]c(-c2cc(C(N)=O)cc3c2cnn3CCN(C)C2CCC2)n1 [ZZZ108, 1-{2-[cyclobutyl(methyl)amino]ethyl}-4-[3-(1-ethyl-3-methyl-1H-pyrazol-5-yl)-1H-1,2,4-triazol-5-yl]-1H-indazole-6-carboxamide]
6.30	CCn1nc(CO)cc1-c1nc(-c2nc(C(N)=O)cc3[nH]ncc23)n(C)n1 [ZZZ082, 4-{3-[1-ethyl-3-(hydroxymethyl)-1H-pyrazol-5-yl]-1-methyl-1H-1,2,4-triazol-5-yl}-1H-pyrazolo[4,3-c]pyridine-6-carboxamide]
